Assay: xn = mol fraction of the nth substance listed

CCCCOC(=O)c1ccccc1 + CCCCCC
101 kPa
Conditions	viscosity [mPa·s]
298.15 K, x2 = 0.0788	2.272
298.15 K, x2 = 0.1269	2.042
298.15 K, x2 = 0.1801	1.81
298.15 K, x2 = 0.2539	1.536
298.15 K, x2 = 0.302	1.377
298.15 K, x2 = 0.3485	1.244
298.15 K, x2 = 0.4084	1.088
298.15 K, x2 = 0.4955	0.896
298.15 K, x2 = 0.5498	0.796
298.15 K, x2 = 0.6402	0.654
298.15 K, x2 = 0.6861	0.594
298.15 K, x2 = 0.7746	0.495
298.15 K, x2 = 0.8136	0.458
298.15 K, x2 = 0.8494	0.427
298.15 K, x2 = 0.8868	0.399
298.15 K, x2 = 0.9265	0.37
298.15 K, x2 = 0.961	0.348
308.15 K, x2 = 0.0668	1.923
308.15 K, x2 = 0.1277	1.7
308.15 K, x2 = 0.1875	1.5
308.15 K, x2 = 0.2458	1.331
308.15 K, x2 = 0.2926	1.211
308.15 K, x2 = 0.3554	1.063
308.15 K, x2 = 0.4013	0.966
308.15 K, x2 = 0.4549	0.863
308.15 K, x2 = 0.5013	0.785
308.15 K, x2 = 0.5515	0.707
308.15 K, x2 = 0.5967	0.644
308.15 K, x2 = 0.6407	0.59
308.15 K, x2 = 0.6896	0.536
308.15 K, x2 = 0.728	0.497
308.15 K, x2 = 0.7727	0.457
308.15 K, x2 = 0.8106	0.427
308.15 K, x2 = 0.8512	0.396
308.15 K, x2 = 0.8888	0.37
308.15 K, x2 = 0.9482	0.337
318.15 K, x2 = 0.0337	1.707
318.15 K, x2 = 0.1077	1.48
318.15 K, x2 = 0.1661	1.326
318.15 K, x2 = 0.231	1.166
318.15 K, x2 = 0.2845	1.05
318.15 K, x2 = 0.3438	0.934
318.15 K, x2 = 0.3951	0.846
318.15 K, x2 = 0.4512	0.757
318.15 K, x2 = 0.4998	0.691
318.15 K, x2 = 0.5513	0.624
318.15 K, x2 = 0.5518	0.625
318.15 K, x2 = 0.646	0.523
318.15 K, x2 = 0.6884	0.486
318.15 K, x2 = 0.7317	0.447
318.15 K, x2 = 0.7749	0.412
318.15 K, x2 = 0.8206	0.383
318.15 K, x2 = 0.8608	0.36
318.15 K, x2 = 0.9115	0.327
318.15 K, x2 = 0.9342	0.317

C[NH+](CCO)CCO.O=C[O-] + CO
viscosity [mPa·s], 101 kPa
Conditions	293.15 K	303.15 K	313.15 K	323.15 K
x1 = 0.0524	26.47	15.39	6.822	4.667
x1 = 0.1066	52.08	24.58	13.12	8.99
x1 = 0.2075	103.1	49.04	26.16	17.87
x1 = 0.3137	158.6	77.7	40.82	27.89
x1 = 0.4061	207.6	102	54.12	37.05
x1 = 0.5016	259.6	126.3	68.64	47.08
x1 = 0.6339	339	163	91.65	62.82
x1 = 0.7031	388.3	187.2	106.1	72.5
x1 = 0.8195	494.6	243.3	136.4	92.04
x1 = 0.9184	618.8	307.1	167.4	111.1
x1 = 0.962	667.2	330.3	179.6	118.9

Nc1ccccc1 + CC(C)CO
303 K, 101.33 kPa
Conditions	viscosity [mPa·s]
x1 = 0.1	2.305
x1 = 0.2	2.138
x1 = 0.3	2.096
x1 = 0.4	2.047
x1 = 0.5	2.073
x1 = 0.6	2.172
x1 = 0.7	2.284
x1 = 0.8	2.366
x1 = 0.9	2.715

CCNCC + O=C1CCCCC1
298.15 K, 101 kPa
Conditions	viscosity [mPa·s]
x2 = 0.076	0.296
x2 = 0.157	0.338
x2 = 0.2421	0.415
x2 = 0.3319	0.502
x2 = 0.427	0.639
x2 = 0.5278	0.79
x2 = 0.6349	0.97
x2 = 0.7488	1.224
x2 = 0.8702	1.54

Nc1ccccc1 + CS(C)=O
viscosity [mPa·s], 101 kPa
Conditions	298.15 K	302.4 K	308.15 K	318.15 K
x2 = 0.0786	–	5.806	–	–
x2 = 0.1	3.83	–	2.841	2.194
x2 = 0.2	3.94	–	2.925	2.259
x2 = 0.2281	–	3.998	–	–
x2 = 0.3	3.99	–	2.98	2.3
x2 = 0.4	3.938	–	2.958	2.294
x2 = 0.4344	–	4.788	–	–
x2 = 0.5	3.756	–	2.839	2.232
x2 = 0.5614	–	5.863	–	–
x2 = 0.6	3.445	–	2.644	2.106
x2 = 0.6809	–	6.538	–	–
x2 = 0.7	3.055	–	2.397	1.938
x2 = 0.8	2.664	–	2.134	1.746
x2 = 0.8473	–	6.37	–	–
x2 = 0.9	2.313	–	1.886	1.529

Oc1ccc2ccccc2c1 + CCCCCOC(C)=O
Conditions	viscosity [mPa·s]
298.15 K, 101 kPa, x2 = 0.5	1.598

CCNCC + CCCCCO
viscosity [mPa·s], 100 kPa
Conditions	x1 = 0.0806	x1 = 0.1601	x1 = 0.236	x1 = 0.3486	x1 = 0.4399	x1 = 0.5596	x1 = 0.6501	x1 = 0.7397	x1 = 0.8494	x1 = 0.9401
293.15 K	3.45	2.94	2.51	1.92	1.52	1.09	0.833	0.645	0.476	0.373
303.15 K	2.61	2.22	1.87	1.43	1.12	0.79	0.618	0.496	0.386	0.323
313.15 K	2	1.7	1.43	1.09	0.847	0.594	0.47	0.38	0.317	0.28
323.15 K	1.54	1.31	1.09	0.83	0.64	0.45	0.357	0.3	0.261	0.245

CCNCC + CCCCOCCO
viscosity [mPa·s], 100 kPa
Conditions	298.15 K	303.15 K	308.15 K
x2 = 0.0499	0.35	0.335	0.31
x2 = 0.1001	0.417	0.391	0.368
x2 = 0.1508	0.485	0.45	0.423
x2 = 0.2001	0.561	0.523	0.492
x2 = 0.2997	0.758	0.693	0.647
x2 = 0.3995	1.028	0.933	0.865
x2 = 0.5	1.356	1.212	1.116
x2 = 0.5999	1.72	1.516	1.389
x2 = 0.7	2.083	1.832	1.673
x2 = 0.7999	2.407	2.101	1.913
x2 = 0.8997	2.662	2.319	2.1
x2 = 0.9495	2.769	2.415	2.181
